Test results from patent US20260224524A1, “A PHARMACEUTICAL COMPOSITION TARGETING MUTANT P53 AND HER2” (DR DOZO LABORATORIES, priority 2023, published 2026).
In brackets after ≈: the same amount, converted by molar mass. Read-outs that look alike come from different tables or passages of the source.

Key:
Assay type in all cases: cell-based
[1] = system: Human Breast Cancer Cell Line MDA-MB-231; assay: Growth inhibition (% control growth, LC50, TGI, GI50) MDA-MB-231; details: Molar drug concentrations calculated from graph
[2] = system: Human Pancreatic Cancer Cell Line Mia-Pa-Ca-2; assay: Growth inhibition (% control growth, LC50, TGI, GI50) Mia-Pa-Ca-2; details: Mia-Pa-Ca-2
Description: The therapeutic effect of SA1 (peak 5) and SA2 (peak 4) is evaluated against human pancreatic cancer cell line Mia-Pa-Ca-2 by calculating the percentage growth inhibition, drug concentration of test compound needed to inhibit cell growth by 50% (GI50) values.
The therapeutic effect of SACC is evaluated against human […] cancer cell line Mia-Pa-Ca-2 by calculating the percentage growth inhibition, drug concentration of test compound needed to inhibit cell growth by 50% (GI50) values.

[3] = system: Human Lung Cancer Cell Line A-549; assay: Growth inhibition (% control growth, LC50, TGI, GI50) A-549; details: A-549
Description: The therapeutic effect of SA1 (peak 5) and SA2 (peak 4) is evaluated against human lung cancer cell line A-549 by calculating the percentage growth inhibition, drug concentration of test compound needed to inhibit cell growth by 50% (GI50) values.
The therapeutic effect of SACC is evaluated against human lung cancer cell line A-549 by calculating the percentage growth inhibition, drug concentration of test compound needed to inhibit cell growth by 50% (GI50) values.

[4] = system: Human Breast Cancer Cell Line MDA-MB-231; assay: Growth inhibition (% control growth, LC50, TGI, GI50) MDA-MB-231
Description: The therapeutic effect of […] (peak 5) and SA2 (peak 4) is evaluated against human […] cancer cell line MDA-MB-231 by calculating the percentage growth inhibition, drug concentration of test compound needed to inhibit cell growth by 50% (GI50) values.
The therapeutic effect of SACC is evaluated against human […] cancer cell lines MDA-MB-231 by calculating the percentage growth inhibition, drug concentration of test compound needed to inhibit cell growth by 50% (GI50) values.

[5] = system: A549 cell line; assay: Cytotoxicity MTT assay against A549; details: Homo sapiens; for inhibition at 1.563 µM / inhibition at 3.125 µM / inhibition at 6.25 µM / inhibition at 12.5 µM / inhibition at 25 µM / inhibition at 50 µM / inhibition at 100 µM: A549, A549
Description: For cytotoxicity studies, Test sample was considered as 100% stock and serial two-fold dilutions were prepared from 10% to 0.156% using F-12K plain media for treatment. 10 mM stock of Standard Doxorubicin was diluted from 100 μM to […] using F-12K plain media for treatment.
(§1) A549 cells were cultured in F-12K medium with appropriate supplements in a humidified atmosphere of 5% CO2 at 37° C. until confluent. The viability of the cells was checked using conventional hemocytometer. Appropriate cell density per ml of media was prepared and seeded in a 96 well plate and incubated for 24 h at 37° C. with 5% CO2 to assess the cell viability.
• 1. The cell count was adjusted to 5×10^5 cells/ml using complete media. To each well of the 96 well microtiter plate, 100 μl of the diluted cell suspension (50,000 cells/well) was added and incubated for 24 h at 37° C. in 5% CO2 atmosphere. • 2. After 24 h, the cells were treated with various concentrations of test compound and incubated at 37° C. for 24 h in 5% CO2 atmosphere. • 3. After incubation, the test solutions in the wells were discarded and 100 μl of MTT (5 mg/10 ml of MTT in PBS) was added to each well. The plates were incubated for 4 h at 37° C. in 5% CO2 atmosphere. • 4. The supernatants were removed and 100 μl of DMSO was added and the plates were gently shaken to solubilize the formed formazan. The absorbance was measured using a microplate reader at a wavelength of 590 nm. • 5.
% Inhibition=(OD of sample−OD of Control/OD of Control)×100

[6] = system: A549 cell line; assay: Cell viability test using trypan blue exclusion method against A549; details: Homo sapiens, 24 h
Description: For cytotoxicity studies, Test sample was considered as 100% stock and serial two-fold dilutions were prepared from 10% to 0.156% using F-12K plain media for treatment. 10 mM stock of Standard Doxorubicin was diluted from 100 μM to 1.56 μM using F-12K plain media for treatment.
as §1
• 1. The cell count was adjusted to 5×10^5 cells/ml using complete media. To each well of the 96 well microtiter plate, 100 μl of the diluted cell suspension (50,000 cells/well) was added and incubated for 24 h at 37° C. in 5% CO2 atmosphere. • 2. After 24 h, the cells were treated with various concentrations of test compound and incubated at 37° C. for 24 h in 5% CO2 atmosphere. • 3. After incubation the test solutions in the wells were discarded. • 4. Cells were trypsinized and 20 μl of cell suspension was taken for viability counting. • 5. To this 20 μl of trypan blue dye was added and mixed well. • 6. The mixture was then loaded to haemocytometer at the end of the notch with the help of pipette. • 7. Haemocytometer was kept under the inverted microscope and scored in each quadrant. • 8. Cell counting wad done according to Neubauer's rules and noted. Percentage cell viability was calculated for the obtained data using below given formulae.
Viable cells=Average viable cells*2*10^3 cells/100 μl
% Viability=Viable cells/Total cells×100

[7] = read-out: % Mean Cell Inhibition

## Cc1cc(=O)cco1 (single isomer, unassigned) [SA1 (peak 5), 2-methyl-4H-pyran-4-one]
[1]
  TGI: 4.03 mg/L (≈ 36.6 µM)
[2]; Homo sapiens, MIA PaCa-2, Molar drug concentrations calculated from graph
  GI50: 0.00108 mg/L (≈ 0.00984 µM)
[2]; 10^−4M, Average Values
  % Control Growth: 49.2%
[2]; 10^−4M, Experiment 1
  % Control Growth: 30.0%
[2]; 10^−4M, Experiment 2
  % Control Growth: 63.5%
[2]; 10^−4M, Experiment 3
  % Control Growth: 54.2%
[2]; 10^−5M, Average Values
  % Control Growth: 108.5%
[2]; 10^−5M, Experiment 1
  % Control Growth: 97.0%
[2]; 10^−5M, Experiment 2
  % Control Growth: 112.7%
[2]; 10^−5M, Experiment 3
  % Control Growth: 115.9%
[2]; 10^−6M, Average Values
  % Control Growth: 113.4%
[2]; 10^−6M, Experiment 1
  % Control Growth: 111.0%
[2]; 10^−6M, Experiment 2
  % Control Growth: 116.4%
[2]; 10^−6M, Experiment 3
  % Control Growth: 112.6%
[2]; 10^−7M, Average Values
  % Control Growth: 105.7%
[2]; 10^−7M, Experiment 1
  % Control Growth: 108.1%
[2]; 10^−7M, Experiment 2
  % Control Growth: 95.5%
[2]; 10^−7M, Experiment 3
  % Control Growth: 113.5%
[2]; Molar drug concentrations calculated from graph
  TGI: 0.7992 mg/L (≈ 7.26 µM)
[3]; 10^−4M, Average Values
  % Control Growth: 65.2%
[3]; 10^−4M, Experiment 1
  % Control Growth: 64.0%
[3]; 10^−4M, Experiment 2
  % Control Growth: 65.1%
[3]; 10^−4M, Experiment 3
  % Control Growth: 66.6%
[3]; 10^−5M, Average Values
  % Control Growth: 81.9%
[3]; 10^−5M, Experiment 1
  % Control Growth: 86.4%
[3]; 10^−5M, Experiment 2
  % Control Growth: 78.3%
[3]; 10^−5M, Experiment 3
  % Control Growth: 81.1%
[3]; 10^−6M, Average Values
  % Control Growth: 79.1%
[3]; 10^−6M, Experiment 1
  % Control Growth: 83.6%
[3]; 10^−6M, Experiment 2
  % Control Growth: 77.7%
[3]; 10^−6M, Experiment 3
  % Control Growth: 75.9%
[3]; 10^−7M, Average Values
  % Control Growth: 79.7%
[3]; 10^−7M, Experiment 1
  % Control Growth: 80.8%
[3]; 10^−7M, Experiment 2
  % Control Growth: 80.6%
[3]; 10^−7M, Experiment 3
  % Control Growth: 77.6%
[4]; 10^−4M, Average Values
  % Control Growth: 35.0%
[4]; 10^−4M, Experiment 1
  % Control Growth: 43.7%
[4]; 10^−4M, Experiment 2
  % Control Growth: 27.1%
[4]; 10^−4M, Experiment 3
  % Control Growth: 34.3%
[4]; 10^−5M, Average Values
  % Control Growth: 58.6%
[4]; 10^−5M, Experiment 1
  % Control Growth: 75.2%
[4]; 10^−5M, Experiment 2
  % Control Growth: 44.0%
[4]; 10^−5M, Experiment 3
  % Control Growth: 56.4%
[4]; 10^−6M, Average Values
  % Control Growth: 75.4%
[4]; 10^−6M, Experiment 1
  % Control Growth: 90.3%
[4]; 10^−6M, Experiment 2
  % Control Growth: 69.9%
[4]; 10^−6M, Experiment 3
  % Control Growth: 66.1%
[4]; 10^−7M, Average Values
  % Control Growth: 60.8%
[4]; 10^−7M, Experiment 1
  % Control Growth: 75.4%
[4]; 10^−7M, Experiment 2
  % Control Growth: 50.9%
[4]; 10^−7M, Experiment 3
  % Control Growth: 56.0%

## COc1cccc2c1C(=O)c1c(O)c3c(c(O)c1C2=O)C[C@@](O)(C(=O)CO)C[C@@H]3O[C@H]1C[C@H](N)[C@H](O)[C@H](C)O1 [Doxorubicin]
[5]; n = 1, read-out: % Inhibition
  inhibition at 1.563 µM: 17.3%
  inhibition at 3.125 µM: 27.8%
  inhibition at 6.25 µM: 36.3%
  inhibition at 12.5 µM: 45.4%
  inhibition at 25 µM: 64.5%
  inhibition at 50 µM: 75.5%
  inhibition at 100 µM: 87.9%
[5]; n = 2, read-out: % Inhibition
  inhibition at 1.563 µM: 19.6%
  inhibition at 3.125 µM: 25.6%
  inhibition at 6.25 µM: 35.9%
  inhibition at 12.5 µM: 44.2%
  inhibition at 25 µM: 65.2%
  inhibition at 50 µM: 74.4%
  inhibition at 100 µM: 90.3%
[5]; n = 3, read-out: % Inhibition
  inhibition at 1.563 µM: 18.4%
  inhibition at 3.125 µM: 24.7%
  inhibition at 6.25 µM: 37.4%
  inhibition at 12.5 µM: 45.8%
  inhibition at 25 µM: 65.2%
  inhibition at 50 µM: 78.2%
  inhibition at 100 µM: 89.2%
[5]; [7]
  inhibition at 1.563 µM: 18.4%
  inhibition at 3.125 µM: 26.1%
  inhibition at 6.25 µM: 36.5%
  inhibition at 12.5 µM: 45.1%
  inhibition at 25 µM: 65%
  inhibition at 50 µM: 76%
  inhibition at 100 µM: 89.2%
[5]; A549, MTT, 24 h
  IC50: 20.3 µM
[6]; 1.563 μM
  viability at 1.563 µM: 85.5%
[6]; 3.125 μM
  viability at 3.125 µM: 74.5%
[6]; 6.25 μM
  viability at 6.25 µM: 66.1%
[6]; 12.5 μM
  viability at 12.5 µM: 51.6%
[6]; 25 μM
  viability at 25 µM: 36.5%
[6]; 50 μM
  viability at 50 µM: 26.2%
[6]; 100 μM
  viability at 100 µM: 11.1%
